Measurements: patent publication US10233186B2, “Inhibitors of activin receptor-like kinase” (BLUEPRINT MEDICINES CORPORATION, priority 2016, dated 2019)

Tests used:
human ALK2 R206H = target: T1, human ALK2 R206H (Homo sapiens, UniProt Q04771, R206H); test: Cell-based ALK2-R206H cell activity assay (Smad1-Ser463/Ser465 phosphorylation by AlphaLISA in HEK293-ALK2-R206H cells); details: read-out: Cell Line (Cell Assay IC50)
T1 construct: expressed in transfected cells; host or cells: HEK293 (ATCC CRL1573), lentivirus transduction, blasticidin selection
T1 sequence (Q04771 21-509 R206H): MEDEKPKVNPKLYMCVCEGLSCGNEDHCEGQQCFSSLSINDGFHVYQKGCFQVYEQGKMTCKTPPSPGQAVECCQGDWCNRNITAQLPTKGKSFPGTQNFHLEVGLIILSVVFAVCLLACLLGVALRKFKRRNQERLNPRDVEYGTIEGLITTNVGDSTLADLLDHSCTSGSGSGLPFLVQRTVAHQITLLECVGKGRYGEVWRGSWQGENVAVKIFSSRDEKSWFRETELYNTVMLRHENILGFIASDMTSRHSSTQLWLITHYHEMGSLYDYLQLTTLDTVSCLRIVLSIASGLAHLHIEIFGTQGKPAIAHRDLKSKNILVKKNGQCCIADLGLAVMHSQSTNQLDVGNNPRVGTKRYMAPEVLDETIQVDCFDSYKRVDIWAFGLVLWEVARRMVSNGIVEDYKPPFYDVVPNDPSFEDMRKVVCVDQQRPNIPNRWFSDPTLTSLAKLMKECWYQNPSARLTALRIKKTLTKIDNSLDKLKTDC
Summary of the method: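 Stable HEK293 cells expressing C-terminally FLAG-tagged human ALK2 R206H (lentiviral, blasticidin-selected) were treated with compounds in 10-point, 3-fold dilutions from 10 μM or 1 μM top, in duplicate. Smad1 Ser463/Ser465 phosphorylation was read by AlphaLISA.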

[1] = target: T2, ALK2 R206H (GST-tagged mutant ALK2) (Homo sapiens, UniProt Q04771, R206H); test: ALK binding assay (LANTHASCREEN TR-FRET competitive binding, displacement of Kinase Tracer 178); details: ALK2 R206H, LANTHASCREEN TR-FRET competitive binding; read-out: Binding Assay (IC50)
T2 construct: purchased Carna Bioscience or ThermoFisher 09-148 or PV6232
T2 sequence (Q04771 21-509 R206H): T1 sequence (Q04771 21-509 R206H)

Structure (SMILES) | IC50 (human ALK2 R206H) [nM] | IC50 [1] [nM]
O=C(C1CC1)N1CCN(c2ccnn3cc(-c4ccc(OC5CCNCC5)cc4)cc23)CC1 [Compound 160] | 100 to 500 | < 10
N[C@H](CO)c1ccc(-c2cc3c(N4CCN(C(=O)C5CC5)CC4)ccnn3c2)cc1 [Compound 752] | 100 to 500 | < 10
CC(C)N1CCC(c2ccc(-c3cc4c(N5CCN(C(=O)NCC(F)(F)F)CC5)ccnn4c3)cc2)CC1 [Compound 708] | < 100 | < 10
O=C(C1CC1)N1CCN(c2ccnn3cc(-c4ccc(C5CCNCC5)cc4)cc23)CC1 [Compound 122] | < 100 | < 10
CCN1CCC(c2ccc(-c3cc4c(N5CCN(C(=O)C6CCC(C)CC6)CC5)ccnn4c3)cc2)CC1 (stereo not shown) [Compound 415] | < 100 | < 10
CC(C)N1CC[C@@H](c2ccc(-c3cc4c(N5CCN(C(=O)C6CC6)CC5)ccnn4c3)nc2)C1 [Compound 485] | < 100 | < 10
COC1(c2ccc(-c3cc4c(N5CCN(C(=O)C6CC6)CC5)ccnn4c3)nc2)CCN(C(C)C)CC1 [Compound 624] | < 100 | < 10
CC(C)NC(=O)N1CCN(c2ccnn3cc(-c4ccc(C5(C#N)CCNCC5)cc4)cc23)CC1 [Compound 502] | < 100 | < 10
CC(C)N[C@H](CO)c1ccc(-c2cc3c(N4CCN(C(=O)OC5COC5)CC4)ccnn3c2)cc1 [Compound 791] | < 100 | < 10
CCOC(=O)N1CCN(c2ccnn3cc(-c4ccc(C5COCCN5)cc4)cc23)CC1 (stereo not shown) [Compound 468] | < 100 | < 10
CC(C)N1CCC(c2ccc(-c3cc4c(N5CCN(C(=O)OCC(F)(F)F)CC5)ccnn4c3)cc2)CC1 [Compound 430] | < 100 | < 10
CC(C)N1CC(O)(c2ccc(-c3cc4c(N5CCN(C(=O)C6CCC(C#N)CC6)CC5)ccnn4c3)cc2)C1 (stereo not shown) [Compound 706] | < 100 | < 10
CCNC(=O)N1CCN(c2ccnn3cc(-c4ccc([C@H]5CCCN5)nc4)cc23)CC1 [Compound 457] | 100 to 500 | < 10
O=C(C1CC1)N1CCN(c2ccnn3cc(-c4ccc([C@@H]5CCCN(C6CCC6)C5)cc4)cc23)CC1 [Compound 305] | < 100 | < 10
COC1(c2ccc(-c3cc4c(N5CCN(C(=O)[C@H]6C[C@H](C#N)C6)CC5)ccnn4c3)nc2)CCN([C@@H](C)CO)CC1 [Compound 741] | < 100 | < 10
CCOC1(c2ccc(-c3cc4c(N5CCN(C(=O)O[C@@H]6CCOC6)CC5)ccnn4c3)nc2)CCN(C(C)C)CC1 [Compound 876] | < 100 | < 10
O=C(C1CC1)N1CCN(c2ccnn3cc(-c4ccc(N5CCN6CCCCC6C5)cc4)cc23)CC1 (stereo not shown) [Compound 307] | 100 to 500 | < 10
CCNC(=O)N1CCN(c2ccnn3cc(-c4ccc(C5(OCC)CCN(C(C)C)CC5)cc4)cc23)CC1 [Compound 675] | < 100 | < 10
CC(C)N1CC[C@@H](OC(F)F)[C@H](c2ccc(-c3cc4c(N5CCN(C(=O)OC6COC6)CC5)ccnn4c3)cc2)C1 [Compound 889] | < 100 | < 10
CCOC1(c2ccc(-c3cc4c(N5CCN(C(=O)OC[C@H](C)F)CC5)ccnn4c3)nc2)CCN(C(C)C)CC1 [Compound 865] | < 100 | < 10
CC1(c2ccc(-c3cc4c(N5CCN(C(=O)C6CC6)CC5)ccnn4c3)nc2)CCCN1 (stereo not shown) [Compound 463] | < 100 | < 10
COC1(c2ccc(-c3cc4c(N5CCN(C(=O)[C@H]6C[C@H](C#N)C6)CC5)ccnn4c3)cc2)CCN(C(C)C)CC1 [Compound 728] | < 100 | < 10
CCN1CCC(c2ccc(-c3cc4c(N5CCN(C(=O)N6CCCC6)CC5)ccnn4c3)cc2)CC1 [Compound 317] | 100 to 500 | < 10
CCOC(=O)N1CCN(c2ccnn3cc(-c4ccc([C@]5(OC)CCCNC5)cn4)cc23)CC1 [Compound 796] | < 100 | < 10
COC1(c2ccc(-c3cc4c(N5CCN(C(=O)C6CC6)CC5)ccnn4c3)c(C#N)c2)CCN(C(C)C)CC1 [Compound 839] | < 100 | < 10
CC[C@H](C)N1CCC[C@@H](c2ccc(-c3cc4c(N5CCN(C(=O)C6CC6)CC5)ccnn4c3)cc2)C1 [Compound 561] | < 100 | < 10
CCN1CC(n2cc(-c3cc4c(N5CCN(C(=O)C6CC6)CC5)ccnn4c3)cn2)C1 [Compound 118] | 100 to 500 | < 10

Structure (SMILES) | IC50 (human ALK2 R206H) [nM] | IC50 [1] [nM]
O=C(C1CC1)N1CCN(c2ccnn3cc(-c4ccc([C@H]5CCCN5)nc4)cc23)CC1 [Compound 451] | < 100 | < 10
CC(C)N1CCC[C@@H](c2ccc(-c3cc4c(N5CCN(C(=O)OC6(C#N)COC6)CC5)ccnn4c3)cc2)C1 [Compound 840] | 100 to 500 | < 10
CCNC(=O)N1CCN(c2ccnn3cc(-c4ccc([C@@H]5CCCN(C(C)C)C5)cc4)cc23)CC1 [Compound 276] | < 100 | < 10
CC(C)NC(=O)N1CCN(c2ccnn3cc(-c4ccc([C@@]5(C)CCCN5C(C)C)cc4)cc23)CC1 [Compound 582] | < 100 | < 10
CC(C)N1CCC(c2ccc(-c3cc4c(N5CCN(C(=O)Nc6ccccc6F)CC5)ccnn4c3)cc2)CC1 [Compound 851] | 100 to 500 | < 10
CC(C)NC(=O)N1CCN(c2ccnn3cc(-c4ccc(C5(O)CN(C(C)C)C5)cc4)cc23)CC1 [Compound 540] | < 100 | < 10
CC(C)N1CC[C@H](c2ccc(-c3cc4c(N5CCN(C(=O)[C@H]6C[C@H](O)C6)CC5)ccnn4c3)cc2)C1 [Compound 320] | < 100 | < 10
CCCNC(=O)N1CCN(c2ccnn3cc(-c4ccc([C@H]5CCCN(C(C)C)C5)cc4)cc23)CC1 [Compound 579] | < 100 | < 10
[2H]C1(OC(=O)N2CCN(c3ccnn4cc(-c5ccc(C6CCN(C(C)C)CC6)cc5)cc34)CC2)COC1 [Compound 814] | < 100 | < 10
COC1(c2ccc(-c3cc4c(N5CCN(C(=O)C6CC6)[C@H](C)C5)ccnn4c3)cc2)CCN(C(C)C)CC1 [Compound 659] | < 100 | < 10
COCCOC(=O)N1CCN(c2ccnn3cc(-c4ccc(C5CCN(C(C)C)CC5)cc4)cc23)CC1 [Compound 401] | 100 to 500 | < 10
CC(C)NC(=O)N1CCN(c2ccnn3cc(-c4cnn([C@H]5CCCN(C(C)C)C5)c4)cc23)CC1 [Compound 557] | < 100 | < 10
CC(C)N1CCC(c2ccc(-c3cc4c(N5CCN(C(=O)O[C@@H]6CCOC6)CC5)ccnn4c3)cc2)CC1 [Compound 666] | < 100 | < 10
CO[C@]1(c2ccc(-c3cc4c(N5CCN(C(=O)NC(C)C)CC5)ccnn4c3)nc2)CCCNC1 [Compound 784] | < 100 | < 10
C[C@@H]1CNC[C@H](c2ccc(-c3cc4c(N5CCN(C(=O)C6CC6)CC5)ccnn4c3)cc2)O1 [Compound 164] | 100 to 500 | < 10
COCCN1CCN(c2ccc(-c3cc4c(N5CCN(C(=O)C6CC6)CC5)ccnn4c3)cc2)CC1 [Compound 334] | 100 to 500 | 10 to 50
CCNC(=O)N1CCN(c2ccnn3cc(-c4ccc(C5CN(C(C)C)CCN5)cc4)cc23)CC1 (stereo not shown) [Compound 537] | < 100 | < 10
CCOC1(c2ccc(-c3cc4c(N5CCN(C(=O)OCCC#N)CC5)ccnn4c3)nc2)CCN(C(C)C)CC1 [Compound 854] | < 100 | < 10
N[C@@H](CO)c1ccc(-c2cc3c(N4CCN(C(=O)C5CC5)CC4)ccnn3c2)cc1 [Compound 753] | < 100 | < 10
COC1(c2ccc(-c3cc4c(N5CCN(C(=O)OC6COC6)CC5)ccnn4c3)nc2)CCNC(C)(C)C1 (stereo not shown) [Compound 833] | < 100 | < 10
O=C(C1CC1)N1CCN(c2ccnn3cc(-c4ccc(C5CCCCN5)cc4)cc23)CC1 (stereo not shown) [Compound 125] | < 100 | < 10
CCN1CC[C@@H](c2ccc(-c3cc4c(N5CCN(C(=O)N6CC(C#N)C6)CC5)ccnn4c3)cc2)C1 [Compound 303] | < 100 | < 10
O=C([C@@H]1C[C@H]1F)N1CCN(c2ccnn3cc(-c4ccc(N5CCNCC5)nc4)cc23)CC1 [Compound 186] | 100 to 500 | < 10
CCN1CCC(c2ccc(-c3cc4c(N5CCN(C(=O)[C@H]6CC6(C)C)CC5)ccnn4c3)cc2)C1 (stereo partly shown) [Compound 251] | < 100 | < 10
COC1(c2ccc(-c3cc4c(N5CCN(C(=O)NC(C)C)CC5)ccnn4c3)cc2F)CCN(C(C)C)CC1 [Compound 720] | < 100 | < 10
C[C@H]1CN(c2ccc(-c3cc4c(N5CCN(C(=O)C6CC6)CC5)ccnn4c3)cc2)CCN1 [Compound 156] | < 100 | < 10
